Experimental data from ChEMBL document CHEMBL1201862, “PubChem BioAssay data set” (2004).
Calls of active or inactive are those of the source. No stated cut-off is given here; in the data, actives have a measured IC50 and inactives only a lower limit.

These molecules were tested against Envelope glycoprotein gp160 (Human immunodeficiency virus 1, UniProt Q6QLK5) (assay: cell-free HIV fusion peptide-binding blockers – biochemical, uHTS, fluorescence dequenching, […] (AID 1986)).
Envelope glycoprotein gp160, sequence (Q6QLK5 whole entry, the tested form may be a part): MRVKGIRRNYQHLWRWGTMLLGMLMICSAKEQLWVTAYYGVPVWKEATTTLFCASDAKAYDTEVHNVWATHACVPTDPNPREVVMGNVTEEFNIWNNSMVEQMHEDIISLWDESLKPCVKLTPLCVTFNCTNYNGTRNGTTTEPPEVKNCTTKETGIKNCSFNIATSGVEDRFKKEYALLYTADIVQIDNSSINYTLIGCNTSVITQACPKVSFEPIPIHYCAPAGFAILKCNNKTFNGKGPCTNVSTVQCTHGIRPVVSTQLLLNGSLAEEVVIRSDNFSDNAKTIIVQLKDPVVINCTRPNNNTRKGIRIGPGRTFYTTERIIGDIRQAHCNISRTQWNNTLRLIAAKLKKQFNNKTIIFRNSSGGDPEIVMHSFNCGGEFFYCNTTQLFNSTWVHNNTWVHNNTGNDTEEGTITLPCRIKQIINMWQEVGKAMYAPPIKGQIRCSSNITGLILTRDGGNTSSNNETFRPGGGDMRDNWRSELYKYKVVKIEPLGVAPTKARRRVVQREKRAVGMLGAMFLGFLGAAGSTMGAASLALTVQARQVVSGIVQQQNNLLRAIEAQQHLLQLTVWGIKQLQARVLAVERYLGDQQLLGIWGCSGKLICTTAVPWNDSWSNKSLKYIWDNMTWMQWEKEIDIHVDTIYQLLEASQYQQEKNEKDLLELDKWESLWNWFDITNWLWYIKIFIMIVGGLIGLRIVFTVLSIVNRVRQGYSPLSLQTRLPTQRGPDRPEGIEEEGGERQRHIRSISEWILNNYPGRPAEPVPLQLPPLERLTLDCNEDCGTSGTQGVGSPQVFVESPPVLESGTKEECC
In the case of `O=C(NCc1ccccc1)c1ccc2c(=O)[nH]c3c(C(=O)NCC4CCCO4)sc(=S)n3c2c1` (stereo not drawn), the IC50 is reported as 24.5 µM (active). In the case of `O=C(CN1C(=O)S/C(=C\C=C\c2ccccc2)C1=O)Nc1ccccc1C(=O)O`, the IC50 is reported as 21.1 µM (active). For `O=C(O)C1Nc2c(O)cccc2C2C=CCC12` (stereo not drawn), the IC50 was 9.86 µM (active).
